Test results from patent publication US11046680B1, “Heteroaryl-substituted triazoles as APJ receptor agonists” (priority 2016, dated 2021).

Biological target: human APJ receptor (Homo sapiens (Human), UniProt P35414)
Experiment: biochemical
Type: biochemical
Conditions: [35S]GTPγS binding, CHO membranes expressing human APJ receptor; read-out: Activity hAPJ SPA EC50 IP
Method: The human APJ receptor was cloned by polymerase chain reaction and the gene encoding the receptor was subcloned in pFLAG-CMV™-3 expression vector (Sigma, Saint Louis, Mo. USA) in-house at Amgen. A GTPγS binding assay was performed on membranes prepared from CHO cells stably expressing human APJ receptor. The optimum experimental conditions for the concentrations of GDP, MgCl2, and NaCl in the assay buffer were initially determined. […] Incubation was at RT for 90 min and the microplate was read using a ViewLux™ ultra HTS Microplate Imager (PerkinElmer, Inc.).

Sequence of human APJ receptor (P35414 whole entry): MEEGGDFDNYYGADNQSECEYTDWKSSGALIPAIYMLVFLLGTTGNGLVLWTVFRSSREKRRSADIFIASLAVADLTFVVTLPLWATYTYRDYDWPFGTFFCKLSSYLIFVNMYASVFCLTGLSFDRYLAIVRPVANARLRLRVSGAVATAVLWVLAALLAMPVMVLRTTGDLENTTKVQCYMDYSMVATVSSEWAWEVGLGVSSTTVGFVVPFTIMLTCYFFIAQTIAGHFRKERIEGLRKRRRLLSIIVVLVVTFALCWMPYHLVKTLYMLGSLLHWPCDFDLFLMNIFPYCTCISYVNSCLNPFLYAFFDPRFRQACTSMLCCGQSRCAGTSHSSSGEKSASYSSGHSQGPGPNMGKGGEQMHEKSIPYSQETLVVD

| Molecule | EC50 [nM] |
| --- | --- |
| COc1cncc(-c2nnc(NS(=O)(=O)[C@@H](C)[C@H](OC)c3cnc(C)cn3)n2-c2c(OC)cccc2OC)n1 [Example 327.0, (1R,2S)-N-(4-(2,6-dimethoxyphenyl)-5-(6-methoxy-2-pyrazinyl)-4H-1,2,4-triazol-3-yl)-1-methoxy-1-(5-methyl-2-pyrazinyl)-2-propanesulfonamide] | 4 |
| CCc1csc(-c2nnc(NS(=O)(=O)CCc3ccc(Cl)cc3)n2-c2c(OC)cccc2OC)n1 [Example 152.0, 2-(4-chlorophenyl)-N-(4-(2,6-dimethoxyphenyl)-5-(4-ethylthiazol-2-yl)-4H-1,2,4-triazol-3-yl)ethanesulfonamide] | > 12500 |
| O=S(=O)(Cc1ccc(Cl)cc1)Nc1nnc(-c2cccs2)n1-c1ccccc1OC(F)F [Example 237.0, 1-(4-chlorophenyl)-N-(4-(2-(difluoromethoxy)phenyl)-5-(2-thiophenyl)-4H-1,2,4-triazol-3-yl)methanesulfonamide] | > 12500 |
| COc1ncnc(OC)c1-n1c(NS(=O)(=O)[C@@H](C)[C@H](OC)c2ccc(Cl)cn2)nnc1-c1ccn(C)n1 (single isomer, unassigned) [Example 288.0] | 1.3 |
| COc1cccc(OC)c1-n1c(NS(=O)(=O)[C@@H](C)[C@H](C)c2ncc(F)cn2)nnc1-c1cc2n(n1)CCC2 [Example 208.0, (2S,3R)-N-(5-(5,6-dihydro-4H-pyrrolo[1,2-b]pyrazol-2-yl)-4-(2,6-dimethoxyphenyl)-4H-1,2,4-triazol-3-yl)-3-(5-fluoro-2-pyrimidinyl)-2-butanesulfonamide] | 2.5 |
| COc1cccc(OC)c1-n1c(NS(=O)(=O)C[C@H](OC)c2ccc(Cl)cc2S(C)(=O)=O)nnc1-c1ccn(C)n1 (mixture of isomers) [Example 305.0, (2R)-2-(4-Chloro-2-(methylsulfonyl)phenyl)-N-(4-(2,6-dimethoxyphenyl)-5-(1-methyl-1H-pyrazol-3-yl)-4H-1,2,4-triazol-3-yl)-2-methoxyethanesulfonamide and (2S)-2-(4-chloro-2-(methylsulfonyl)phenyl)-N-(4-(2,6-dimethoxyphenyl)-5-(1-methyl-1H-pyrazol-3-yl)-4H-1,2,4-triazol-3-yl)-2-methoxyethanesulfonamide] | 0.44 |
| COc1cccc(OC)c1-n1c(NS(=O)(=O)[C@@H](C)[C@H](C)c2ncc(C#N)cn2)nnc1-c1ccn(C(F)F)n1 [Example 224.0, (2S,3R)-3-(5-cyano-2-pyrimidinyl)-N-(5-(1-(difluoromethyl)-1H-pyrazol-3-yl)-4-(2,6-dimethoxyphenyl)-4H-1,2,4-triazol-3-yl)-2-butanesulfonamide] | 0.41 |
| COc1ccc(N2CCC2=O)cc1-n1c(NS(=O)(=O)CCc2ccc(F)cc2Br)nnc1-c1cccs1 [Example 131.0, 2-(2-Bromo-4-fluorophenyl)-N-(4-(2-methoxy-5-(2-oxoazetidin-1-yl)phenyl)-5-(thiophen-2-yl)-4H-1,2,4-triazol-3-yl)ethanesulfonamide] | 4.1 |
| CO[C@H](c1ncc(Cl)cn1)[C@H](C)S(=O)(=O)Nc1nnc(-c2ccn(C)n2)n1-c1c(F)cccc1F [Example 229.0, (1R,2S)-1-(5-chloro-2-pyrimidinyl)-N-(4-(2,6-difluorophenyl)-5-(1-methyl-1H-pyrazol-3-yl)-4H-1,2,4-triazol-3-yl)-1-methoxy-2-propanesulfonamide] | 3.1 |
| COc1cnc([C@@H](C)[C@H](C)S(=O)(=O)Nc2nnc(-c3ccn(C)n3)n2-c2c(OC)ncnc2OC)nc1 [Example 296.0, (2S,3R)-N-(4-(4,6-dimethoxy-5-pyrimidinyl)-5-(1-methyl-1H-pyrazol-3-yl)-4H-1,2,4-triazol-3-yl)-3-(5-methoxy-2-pyrimidinyl)-2-butanesulfonamide] | 2.7 |
| Cc1cnc([C@H](OC(C)C)[C@H](C)S(=O)(=O)Nc2nnc(-c3cnn4c3CCC4)n2-c2c(F)cccc2F)cn1 [Example 484.0, (1S,2S)-N-(4-(2,6-difluorophenyl)-5-(5,6-dihydro-4H-pyrrolo[1,2-b]pyrazol-3-yl)-4H-1,2,4-triazol-3-yl)-1-isopropoxy-1-(5-methylpyrazin-2-yl)propane-2-sulfonamide] | 9.2 |
| COc1cccc(OC)c1-n1c(NS(=O)(=O)[C@@H](C)[C@H](OC)c2ncc(C)cn2)nnc1-c1ccnc2ccccc12 [Example 417.0] | 510 |
| COCc1nc(-c2nnc(NS(=O)(=O)CCc3ccc(Cl)cc3)n2-c2c(OC)cccc2OC)cs1 [Example 146.0] | 97 |
| (R)-N-(4-(2,6-dimethoxyphenyl)-5-(pyrimidin-4-yl)-4H-1,2,4-triazol-3-yl)-1-(5-fluoropyrimidin-2-yl)propane-2-sulfonamide and (R)-N-(4-(2,6-dimethoxyphenyl)-5-(pyrimidin-4-yl)-4H-1,2,4-triazol-3-yl)-1-(5-fluoropyrimidin-2-yl)propane-2-sulfonamide [Example 31.0] | 190 |
| COc1cccc(OC)c1-n1c(NS(=O)(=O)[C@@H](C)[C@H](O)c2cnc(C)cn2)nnc1-c1cc(C)[nH]n1 [Example 347.0, (1R,2S)-N-(4-(2,6-Dimethoxyphenyl)-5-(5-methyl-1H-pyrazol-3-yl)-4H-1,2,4-triazol-3-yl)-1-hydroxy-1-(5-methyl-2-pyrazinyl)-2-propanesulfonamide] | 3.8 |
| COc1cccc(OC)c1-n1c(NS(=O)(=O)[C@@H](C)[C@H](OC)c2ncc(C)cn2)nnc1-c1ccn(C)n1 [Example 200.0, (1R,2S)-N-(4-(2,6-dimethoxyphenyl)-5-(1-methyl-1H-pyrazol-3-yl)-4H-1,2,4-triazol-3-yl)-1-methoxy-1-(5-methyl-2-pyrimidinyl)-2-propanesulfonamide] | 0.79 |
| COc1cccc(OC)c1-n1c(NS(=O)(=O)C[C@H](OC)c2ccc(Cl)cn2)nnc1-c1ccn(C)n1 (single isomer, unassigned) [Example 377.0, (R)-2-(5-Chloropyridin-2-yl)-N-(4-(2,6-dimethoxyphenyl)-5-(1-methyl-1H-pyrazol-3-yl)-4H-1,2,4-triazol-3-yl)-2-methoxyethanesulfonamide or (S)-2-(5-chloropyridin-2-yl)-N-(4-(2,6-dimethoxyphenyl)-5-(1-methyl-1H-pyrazol-3-yl)-4H-1,2,4-triazol-3-yl)-2-methoxyethanesulfonamide] | 0.6 |
| COc1ncnc(OC)c1-n1c(NS(=O)(=O)[C@@H](C)[C@@H](OC(C)C)c2ncc(Cl)cn2)nnc1-c1ccn(C)n1 [Example 456.0, (1S,2S)-1-(5-chloro-2-pyrimidinyl)-N-(4-(4,6-dimethoxy-5-pyrimidinyl)-5-(1-methyl-1H-pyrazol-3-yl)-4H-1,2,4-triazol-3-yl)-1-(1-methylethoxy)-2-propanesulfonamide] | 0.6 |
| COc1cccc(OC)c1-n1c(NS(=O)(=O)[C@@H](C)[C@H](C)c2ncc(F)cn2)nnc1-c1cncc(C)n1 [Example 209.0, (2S,3R)-N-(4-(2,6-dimethoxyphenyl)-5-(6-methyl-2-pyrazinyl)-4H-1,2,4-triazol-3-yl)-3-(5-fluoro-2-pyrimidinyl)-2-butanesulfonamide] | 1.5 |
| CCO[C@H](c1ncc(F)cn1)[C@H](C)S(=O)(=O)Nc1nnc(-c2ccn(C)n2)n1-c1c(OC)cccc1OC [Example 135.0, (1R,2S)-N-(4-(2,6-Dimethoxyphenyl)-5-(1-methyl-1H-pyrazol-3-yl)-4H-1,2,4-triazol-3-yl)-1-ethoxy-1-(5-fluoro-2-pyrimidinyl)-2-propanesulfonamide] | 0.88 |
